Source: patent publication US9562031B1, “Phenethyldihydrobenzodioxolones and methods of use” (Sequoia Sciences, Inc., priority 2015, dated 2017)

Legend:
UO-31 cells [1] = assay: antiproliferation assay, paclitaxel-resistant UO-31; assay type: cell-based; details: Homo sapiens
Experimental: (§1) For the antiproliferation assay, NCI-H460 (large cell lung carcinoma) or M14 (amelanotic melanoma) cells were grown in RPMI-1640 with 10% FBS supplemented with L-glutamine and HEPES. Cells were seeded into 96-well plates at 5×10^2 to 5×10^4 cells/well and allowed to adhere overnight; the medium was then removed. A stock solution of test compound in DMSO was diluted in medium to generate a series of working solutions. Aliquots (100 μl) of the working solutions were then added to the appropriate test wells to expose cells to the final concentrations of compound in a total volume of 100 μl. Seven different concentrations were tested, with 2-5 wells per concentration. Camptothecin was used as a positive control; wells containing vehicle without compound were used as negative controls. Plates were kept for 72 h in a 37° C., 5% CO2 incubator. After incubation, viable cells were detected with the CELLTITER 96 AQueous Non-Radioactive Cell Proliferation Assay (Promega), and IC50 values were determined using GraphPad Prism 5 software.
(§2) Compound 4 was tested for antiproliferation activity against several paclitaxel-resistant human cancer cell lines.

[2] = system: NCI-H522 (lung) xenograft tumors; assay: tumor growth inhibition, NCI-H522 murine xenograft model; assay type: in vivo, mice; details: IP 40 mg/kg, days 0,1,2,5,6,7,10,11,12
Experimental: Tumor growth inhibition of compound 4 was measured in several murine xenograft models, and the results of individual experiments are listed in Table 14. Tumors were initiated by subcutaneous injection of either tumor cells from cell culture or tumor fragments from continuous in vivo passage. When tumors reached volumes between approximately 100 and 200 mm^3, the mice were divided into vehicle and treatment groups. Compound or vehicle was administered by IP injection in a volume of 5-10 mL/kg.
Changes in tumor weight (delta weights) for each treated (T) and control (C) group are calculated for each day tumors are measured by subtracting the median tumor weight on the first day of treatment (staging day) from the median tumor weight on the specified observation day. These values are used to calculate a percent T/C as follows: % T/C=(delta T/delta C)×100. The optimal T/C is the minimal value obtained after the first treatment.

LOX-IMVI cells = assay: antiproliferation assay, LOX-IMVI; assay type: cell-based; details: Homo sapiens
Experimental: as §1
(§3) Antiproliferation of several of the active compounds was tested against additional cell lines.

OVCAR-3 cells = assay: antiproliferation assay, OVCAR-3; assay type: cell-based; details: Homo sapiens
Experimental: as §1, §3

NCI/ADR-RES cells = assay: antiproliferation assay, NCI/ADR-RES; assay type: cell-based; details: Homo sapiens
Experimental: as §1, §3, §2

DLD-1 cells = assay: antiproliferation assay, paclitaxel-resistant DLD-1; assay type: cell-based; details: Homo sapiens
Experimental: as §1, §2

MES-SA/Dx5 cells = assay: antiproliferation assay, MES-SA/Dx5; assay type: cell-based; details: Homo sapiens
Experimental: as §1, §3, §2

NCI-ADR/RES cells = assay: NCI-60 panel antiproliferation, NCI-ADR/RES; assay type: cell-based, human; details: Homo sapiens, NCI 60-cell panel
Experimental: (§4) Bifidenone and Compound 37 were tested for antiproliferation activity against the NCI-60 panel of cancer cell lines. COMPARE analysis was then conducted to compare the activity “fingerprint” of bifidenone to those of known classes of compounds (Zhou, B.-N., Hoch, J. M., Johnson, R. K., Mattern, M. R., Eng, W.-K., Ma, J., Hecht, S. M., Newman, D. J., Kingston, D. G. I., 2000. Use of COMPARE Analysis to Discover New Natural Product Drugs: Isolation of Camptothecin and 9-Methoxycamptothecin from a New Source. Journal of Natural Products 63, 1273-1276.).

EKVX cells = assay: NCI-60 panel antiproliferation, EKVX; assay type: cell-based, human; details: Homo sapiens, NCI 60-cell panel
Experimental: as §4

NCI-H460 cells = assay: NCI-60 panel antiproliferation, NCI-H460; assay type: cell-based, human; details: Homo sapiens, NCI 60-cell panel
Experimental: as §4

HOP-92 cells = assay: NCI-60 panel antiproliferation, HOP-92; assay type: cell-based, human; details: Homo sapiens, NCI 60-cell panel
Experimental: as §4

SNB-75 cells = assay: NCI-60 panel antiproliferation, SNB-75; assay type: cell-based, human; details: Homo sapiens, NCI 60-cell panel
Experimental: as §4

LOX IMVI cells = assay: NCI-60 panel antiproliferation, LOX IMVI; assay type: cell-based, human; details: Homo sapiens, NCI 60-cell panel
Experimental: as §4

MOLT-4 cells = assay: NCI-60 panel antiproliferation, MOLT-4; assay type: cell-based, human; details: Homo sapiens, NCI 60-cell panel
Experimental: as §4

OVCAR-4 cells = assay: NCI-60 panel antiproliferation, OVCAR-4; assay type: cell-based, human; details: Homo sapiens, NCI 60-cell panel
Experimental: as §4

A498 cells = assay: NCI-60 panel antiproliferation, A498; assay type: cell-based, human; details: Homo sapiens, NCI 60-cell panel
Experimental: as §4

RPMI-8226 cells = assay: NCI-60 panel antiproliferation, RPMI-8226; assay type: cell-based, human; details: Homo sapiens, NCI 60-cell panel
Experimental: as §4

HCT-15 cells = assay: NCI-60 panel antiproliferation, HCT-15; assay type: cell-based, human; details: Homo sapiens, NCI 60-cell panel
Experimental: as §4

TK-10 cells = assay: NCI-60 panel antiproliferation, TK-10; assay type: cell-based, human; details: Homo sapiens, NCI 60-cell panel
Experimental: as §4

SW-620 cells = assay: NCI-60 panel antiproliferation, SW-620; assay type: cell-based, human; details: Homo sapiens, NCI 60-cell panel
Experimental: as §4

CCRF-CEM cells = assay: NCI-60 panel antiproliferation, CCRF-CEM; assay type: cell-based, human; details: Homo sapiens, NCI 60-cell panel
Experimental: as §4

UO-31 cells [3] = assay: NCI-60 panel antiproliferation, UO-31; assay type: cell-based, human; details: Homo sapiens, NCI 60-cell panel
Experimental: as §4

MDA-MB-435 cells = assay: NCI-60 panel antiproliferation, MDA-MB-435; assay type: cell-based, human; details: Homo sapiens, NCI 60-cell panel
Experimental: as §4

NCI-H226 cells = assay: NCI-60 panel antiproliferation, NCI-H226; assay type: cell-based, human; details: Homo sapiens, NCI 60-cell panel
Experimental: as §4

SF-295 cells = assay: NCI-60 panel antiproliferation, SF-295; assay type: cell-based, human; details: Homo sapiens, NCI 60-cell panel
Experimental: as §4

MDA-MB-231 cells = assay: NCI-60 panel antiproliferation, MDA-MB-231; assay type: cell-based, human; details: Homo sapiens, NCI 60-cell panel
Experimental: as §4

BT-549 cells = assay: NCI-60 panel antiproliferation, BT-549; assay type: cell-based, human; details: Homo sapiens, NCI 60-cell panel
Experimental: as §4

HCT-116 cells = assay: NCI-60 panel antiproliferation, HCT-116; assay type: cell-based, human; details: Homo sapiens, NCI 60-cell panel
Experimental: as §4

COLO205 cells = assay: NCI-60 panel antiproliferation, COLO205; assay type: cell-based, human; details: Homo sapiens, COLO 205, NCI 60-cell panel
Experimental: as §4

786-0 cells = assay: NCI-60 panel antiproliferation, 786-0; assay type: cell-based, human; details: Homo sapiens, NCI 60-cell panel
Experimental: as §4

HL-60 cells = assay: NCI-60 panel antiproliferation, HL-60; assay type: cell-based, human; details: Homo sapiens, NCI 60-cell panel
Experimental: as §4

MALME-3M cells = assay: NCI-60 panel antiproliferation, MALME-3M; assay type: cell-based, human; details: Homo sapiens, NCI 60-cell panel
Experimental: as §4

Q: Which results are given for C=CC[C@H]1C[C@]2([C@H](C)Cc3cc(O)c(OC)cc3F)OCOC2=CC1=O (relative stereo) [Compound 4, 6-allyl-7a-(1-(2-fluoro-5-hydroxy-4-methoxyphenyl)propan-2-yl)-7,7a-dihydrobenzo[d][1,3]dioxol-5(6H)-one]?
A: IC50 (UO-31 cells [1]): 7 nM; Maximum Mean Body Weight Loss [2]: 5%; Optimal T/C [2]: 13%; IC50 (LOX-IMVI cells): 11 nM; IC50 (OVCAR-3 cells): 12 nM; IC50 (NCI/ADR-RES cells): 9.1 nM; IC50 (NCI/ADR-RES cells; paclitaxel-resistant NCI/ADR-RES): 9 nM; IC50 (DLD-1 cells): < 5 nM; IC50 (MES-SA/Dx5 cells; MES-SA/Dx5, MES-SA/Dx5): 13 nM; IC50 (MES-SA/Dx5 cells; MES-SA/Dx5, paclitaxel-resistant MES-SA/Dx5): 14 nM

Q: For C=CC[C@H]1C[C@]2([C@@H](C)Cc3ccc(OC)c(F)c3)OCOC2=CC1=O [Compound 37, (6S,7aR)-6-allyl-7a-((S)-1-(3-fluoro-4-methoxyphenyl)propan-2-yl)-7,7a-dihydrobenzo[d][1,3]dioxol-5(6H)-one], which IC50 (NCI-ADR/RES cells) is on record?
A: 47 nM

Q: And the IC50 (EKVX cells)?
A: 149 nM

Q: What about the IC50 (NCI-H460 cells) of the same compound?
A: 49 nM

Q: And the IC50 (HOP-92 cells)?
A: > 10000 nM

Q: What about the IC50 (SNB-75 cells) of the same compound?
A: 49 nM

Q: And the IC50 (LOX IMVI cells)?
A: 27 nM

Q: What about the IC50 (MOLT-4 cells) of the same compound?
A: 97 nM

Q: And the IC50 (OVCAR-4 cells)?
A: 117 nM

Q: What about the IC50 (A498 cells) of the same compound?
A: 58 nM

Q: What about the IC50 (RPMI-8226 cells) of the same compound?
A: 74 nM

Q: What about the IC50 (HCT-15 cells) of the same compound?
A: 56 nM

Q: What about the IC50 (TK-10 cells) of the same compound?
A: 107 nM

Q: What about the IC50 (SW-620 cells) of the same compound?
A: 47 nM

Q: And the IC50 (CCRF-CEM cells)?
A: 60 nM

Q: What about the IC50 (UO-31 cells [3]) of the same compound?
A: 65 nM

Q: What about the IC50 (MDA-MB-435 cells) of the same compound?
A: 28 nM

Q: What about the IC50 (NCI-H226 cells) of the same compound?
A: 141 nM

Q: What about the IC50 (SF-295 cells) of the same compound?
A: 48 nM

Q: And the IC50 (MDA-MB-231 cells)?
A: 837 nM

Q: What about the IC50 (BT-549 cells) of the same compound?
A: 63 nM

Q: What about the IC50 (HCT-116 cells) of the same compound?
A: 115 nM

Q: And the IC50 (COLO205 cells)?
A: 67 nM

Q: What about the IC50 (786-0 cells) of the same compound?
A: 120 nM

Q: And the IC50 (HL-60 cells)?
A: 36 nM

Q: What about the IC50 (MALME-3M cells) of the same compound?
A: 39 nM
